In patent US20140065075A1, “TARGETED CONTRAST AGENTS AND USES THEREOF” (RF THERAPEUTICS INC., priority 2011, published 2014):

System: necrotic tissue (infarcted myocardial tissue)
Assay: MRI analysis of contrast agents in vivo: rats, left main coronary artery ligation and reperfusion, MR images compared with tissue histology
Set-up: species or system rat
Description: Contrast agents were prepared following the methods outlined in Examples 1-11 above. Rats (250-300 g—obtained from where?) were used for the following studies detailed below.
Rats were anesthetized by administration of isoflurane (5% induction, 1-2% maintenance) and positioned in an animal holder. The blood pressure and heart rate of the rats were monitored prior to ligation to provide a baseline condition. The rats were subjected to ligation of the left main coronary artery under aseptic conditions. During the ligation, the left thoracic cage of the rat, at the 4th intercostal space was opened to expose the heart muscle. The pericardial sac was cut open and the left main coronary artery was ligated at 2-4 mm from its origin using 6-0 prolene for a period of 2 h. The ligature was then removed to allow for the reperfusion of the infarcted myocardial tissue. Following the ligation procedure, bupivacaine and Cicatrin were applied to the incision. […]
The contrast agent was the intravenously injected 4 hours following the start of myocardial reperfusion. The blood pressure and heart rate were monitored during the ligation procedure and the administration of the contrast agent. The body temperature of the rats was monitored with a rectal probe and maintained at the physiological level by the circulating warm water. […]

Question: With O=C([O-])CN(CCN(CCN(CC(=O)[O-])CC(=O)Nc1ccc(NC(=O)CN(CCN(CCN(CC(=O)[O-])CC(=O)O)CC(=O)O)CC(=O)[O-])cc1)CC(=O)O)CC(=O)[O-].[Na+].[Na+].[Na+].[Na+].[Na+] [RF 1002] as the molecule, how does the “contrast enhancement in MR images versus necrotic tissue visible by staining of the tissue sample (binding to necrotic tissue)” value (5 mg/kg and 40 mg/kg intravenous 4 hours after start of reperfusion, 7 Tesla MRI about 4 to 16 hours after administration) read?
Answer: necrotic tissue visible by staining of the tissue sample corresponds to the same region exhibiting contrast enhancement in the MR images

Question: What about the “visibility of contrast enhancement on the MRI, dose comparison” value (40 mg/kg versus 5 mg/kg intravenous) of the same molecule?
Answer: more defined at the higher dosage of contrast agent
